Measurements published in patent US10239933B2, “Compositions and methods for modulating thrombin generation” (The Children's Hospital of Philadelphia, priority 2011, dated 2019).
“Also recorded” adds a separate entry of the source. Read-outs that look alike come from different tables or passages of the source. Ends that are not written are not given here. * marks the point of attachment. X2 = CN(c1ccccc1)c1ccc2c(-c3ccccc3S(=O)(=O)N3CCC(C(=O)NCCCCCN4C(=O)CC(*)C4=O)CC3)c3ccc(=[N+](C)c4ccccc4)cc-3oc2c1; X1 = O=C1OC2(c3cc(F)c(O)cc3Oc3cc(O)c(F)cc32)c2ccc(N3C(=O)CC(*)C3=O)cc21

What was measured:
rFVa [1] = target: T1, rFVa (Homo sapiens, UniProt P12259); experiment: Fluorescence anisotropy, direct binding of OG488-BR to rFVa; conditions: fluorescently labeled BR peptide, rFVa titrated
T1 construct: thrombin rapidly cleaves Factor V at Arg709 to produce heavy chain (HC); rapidly cleaves at Arg1018 and Arg1545 to produce light chain (LC); made in house
T1 sequence (P12259 29-737 limits assumed): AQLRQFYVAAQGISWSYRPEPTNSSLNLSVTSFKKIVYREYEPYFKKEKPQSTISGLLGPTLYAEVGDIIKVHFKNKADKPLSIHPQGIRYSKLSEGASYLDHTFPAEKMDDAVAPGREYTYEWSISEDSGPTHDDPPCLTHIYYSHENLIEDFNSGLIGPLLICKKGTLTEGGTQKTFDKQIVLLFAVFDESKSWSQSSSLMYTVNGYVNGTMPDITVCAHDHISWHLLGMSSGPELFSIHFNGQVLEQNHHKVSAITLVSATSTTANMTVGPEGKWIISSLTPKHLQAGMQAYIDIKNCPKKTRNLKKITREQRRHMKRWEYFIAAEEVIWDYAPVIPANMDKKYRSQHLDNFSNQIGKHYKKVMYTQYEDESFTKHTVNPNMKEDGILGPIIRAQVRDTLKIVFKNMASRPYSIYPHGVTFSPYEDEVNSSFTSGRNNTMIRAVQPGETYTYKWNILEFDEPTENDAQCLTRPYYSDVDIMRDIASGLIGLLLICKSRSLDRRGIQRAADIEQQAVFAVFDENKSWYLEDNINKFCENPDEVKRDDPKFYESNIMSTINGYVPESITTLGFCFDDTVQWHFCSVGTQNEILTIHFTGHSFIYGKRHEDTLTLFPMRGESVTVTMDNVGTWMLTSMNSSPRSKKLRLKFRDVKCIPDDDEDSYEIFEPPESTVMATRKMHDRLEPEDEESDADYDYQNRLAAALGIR
T1 sequence (P12259 1574-2224 limits assumed): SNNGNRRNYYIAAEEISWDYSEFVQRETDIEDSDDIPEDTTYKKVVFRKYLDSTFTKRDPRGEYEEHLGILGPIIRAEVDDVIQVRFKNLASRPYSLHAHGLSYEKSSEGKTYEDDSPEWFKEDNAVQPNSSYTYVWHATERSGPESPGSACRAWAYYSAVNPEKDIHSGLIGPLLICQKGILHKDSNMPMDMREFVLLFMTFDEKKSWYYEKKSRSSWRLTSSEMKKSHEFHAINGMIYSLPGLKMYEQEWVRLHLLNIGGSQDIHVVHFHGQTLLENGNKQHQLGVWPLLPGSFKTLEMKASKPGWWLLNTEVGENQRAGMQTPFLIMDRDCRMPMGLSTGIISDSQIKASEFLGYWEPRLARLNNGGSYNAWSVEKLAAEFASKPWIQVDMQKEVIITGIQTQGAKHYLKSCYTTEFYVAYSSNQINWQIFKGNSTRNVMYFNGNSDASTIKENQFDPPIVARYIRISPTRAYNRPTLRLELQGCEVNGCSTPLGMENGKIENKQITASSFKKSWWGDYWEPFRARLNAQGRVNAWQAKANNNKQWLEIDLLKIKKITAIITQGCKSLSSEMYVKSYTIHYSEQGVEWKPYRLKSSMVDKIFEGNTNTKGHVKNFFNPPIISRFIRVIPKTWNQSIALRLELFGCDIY

FV-810 [2] = target: T2, FV-810 (Homo sapiens, UniProt P12259, DEL839-1519); experiment: Fluorescence anisotropy, direct binding of OG488-BR to FV-810
T2 construct: amino acids 1-28 are a signal peptide that is cleaved and numbering begins at residue 29; made in house

FV-810^R709Q = target: T3, FV-810^R709Q (Homo sapiens, UniProt P12259, DEL839-1519/R737Q); experiment: Fluorescence anisotropy, binding of OG488-BR to FV-810^R709Q; conditions: after incubation with thrombin
T3 construct: amino acids 1-28 are a signal peptide that is cleaved and numbering begins at residue 29; made in house

FV-810^QQ = target: T4, FV-810^QQ (Homo sapiens, UniProt P12259, DEL839-1519/R1573Q/R737Q); experiment: Fluorescence anisotropy, binding of OG488-BR to FV-810^QQ; conditions: after incubation with thrombin
T4 construct: amino acids 1-28 are a signal peptide that is cleaved and numbering begins at residue 29; made in house

FV-810^R1545Q = target: T5, FV-810^R1545Q (Homo sapiens, UniProt P12259, DEL839-1519/R1573Q); experiment: Fluorescence anisotropy, binding of OG488-BR to FV-810^R1545Q
T5 construct: amino acids 1-28 are a signal peptide that is cleaved and numbering begins at residue 29; made in house

FV-810 [3] = target: T2, FV-810; experiment: Analytical ultracentrifugation (sedimentation velocity) of QSY7-BR with FV-810; assay type: binding
Method: Analytical ultracentrifugation of QSY7 C5-maleimide-modified BR (QSY7-BR) was performed in a Beckman Optima XL-I analytical ultracentrifuge using absorbance optics. Sedimentation velocity was measured at 25,000 or 45,000 rpm with two-sector cells in an An-60 Ti rotor at 20° C. Sedimentation of QSY7-BR was followed measuring absorbance at 560 nm in cells containing 5 μM QSY7-BR alone or with 7 μM FV-810 or rFVa in 20 mM HEPES, 150 mM NaCl, and 2 mM CaCl2, pH 7.4. Sedimentation coefficients and molecular weights were determined by g(s*) analysis performed using DCDT+ (Philo, J. S. (2000) Anal. Biochem., 279:151-163).

FVDT [4] = target: T6, FVDT (Homo sapiens, UniProt P12259, DEL839-1519); experiment: Inhibition of FVDT by the FVBR or TFPI peptide (FIG. 7B); assay type: biochemical
T6 construct: amino acids 1-28 are a signal peptide that is cleaved and numbering begins at residue 29; made in house

FVDT [5] = target: T6, FVDT; experiment: Direct binding of TFPI to FVDT (FIG. 7C)
FV-810 [6] = target: T2, FV-810; experiment: Clotting assay, FV-deficient plasma supplemented with FV-810 (FV-DT); assay type: biochemical; conditions: FV-deficient plasma; FIG. 8A: 0.25 nM FV-810, peptides at 5 μM
Method: (§1) Residual clotting activity of Factor V variants was determined by prothrombin time-based clotting assays. Factor V variants were incubated with either the FVBR or s46 peptide, after which the mixtures were mixed with Factor V deficient plasma and clotting times were measured. Where indicated, the Factor V variants were activated by pre-incubation with thrombin prior to addition of the peptides.
(§2) FV derivatives (500 nM) were prepared in assay buffer. Where noted, FV derivatives were pretreated with 10 nM thrombin for 15 minutes at 37° C., followed by the addition of 15 nM hirudin. Samples were diluted to 0.25 nM in assay buffer with 0.1% BSA, and the specific clotting activity was measured in FV-deficient plasma (George King Bio-Medical, Overland Park, Kans.) with TriniCLOT PT Excel (Tcoag, Wicklow, Ireland) as described (Camire et al. (1998) Biochemistry 37:11896-11906). The data are presented as the means±S.D.

FV-810 [7] = target: T2, FV-810; experiment: Displacement of OG488-BR from preformed OG488-BR/FV-810 complex (fluorescence anisotropy); assay type: binding
FXa/FV-DT = target: T7, FXa/FV-DT (Homo sapiens, UniProt P12259, DEL839-1519); experiment: Prothrombin activation assay, prothrombinase containing FV-810 (FV-DT); assay type: biochemical; conditions: peptide titrated; 1.4 μM prothrombin, 50 μM PCPS, 25° C.
T7 construct: amino acids 1-28 are a signal peptide that is cleaved and numbering begins at residue 29; made in house
Method: Steady-state initial velocities of prothrombin cleavage were determined discontinuously at 25° C. by measuring the initial rate of thrombin formation. Reaction mixtures contained liposomes (75:25, PC:PS), prothrombin, the indicated Factor V variants, and the Factor V peptides FVBR or s46. The reactions were initiated by adding Factor Xa, and thrombin generation was determined at multiple time points by monitoring the cleavage of the chromogenic thrombin substrate S-2238.
Steady-state initial velocities of prothrombin cleavage were determined discontinuously at 25° C. as described (Camire, R. M. (2002) J. Biol. Chem., 277:37863-37870). Reaction mixtures containing PCPS (50 μM), DAPA (3 μM), prothrombin (1.4 μM), and either rFVa or the indicated FV-810 derivatives were incubated with B-domain peptides (0-10 μM) in assay buffer. […] Prothrombin activation was determined using the chromogenic thrombin substrate 52238 as described (Camire, R. M. (2002) J. Biol. Chem., 277:37863-37870).

rFVa [8] = target: T1, rFVa; experiment: Clotting assay, FV-deficient plasma supplemented with rFVa; assay type: biochemical; conditions: FIG. 8B: 0.25 nM rFVa, peptides at 5 μM
Method: as §1, §2

T2 sequence (P12259 with tags, fused parts or gaps DEL839-1519): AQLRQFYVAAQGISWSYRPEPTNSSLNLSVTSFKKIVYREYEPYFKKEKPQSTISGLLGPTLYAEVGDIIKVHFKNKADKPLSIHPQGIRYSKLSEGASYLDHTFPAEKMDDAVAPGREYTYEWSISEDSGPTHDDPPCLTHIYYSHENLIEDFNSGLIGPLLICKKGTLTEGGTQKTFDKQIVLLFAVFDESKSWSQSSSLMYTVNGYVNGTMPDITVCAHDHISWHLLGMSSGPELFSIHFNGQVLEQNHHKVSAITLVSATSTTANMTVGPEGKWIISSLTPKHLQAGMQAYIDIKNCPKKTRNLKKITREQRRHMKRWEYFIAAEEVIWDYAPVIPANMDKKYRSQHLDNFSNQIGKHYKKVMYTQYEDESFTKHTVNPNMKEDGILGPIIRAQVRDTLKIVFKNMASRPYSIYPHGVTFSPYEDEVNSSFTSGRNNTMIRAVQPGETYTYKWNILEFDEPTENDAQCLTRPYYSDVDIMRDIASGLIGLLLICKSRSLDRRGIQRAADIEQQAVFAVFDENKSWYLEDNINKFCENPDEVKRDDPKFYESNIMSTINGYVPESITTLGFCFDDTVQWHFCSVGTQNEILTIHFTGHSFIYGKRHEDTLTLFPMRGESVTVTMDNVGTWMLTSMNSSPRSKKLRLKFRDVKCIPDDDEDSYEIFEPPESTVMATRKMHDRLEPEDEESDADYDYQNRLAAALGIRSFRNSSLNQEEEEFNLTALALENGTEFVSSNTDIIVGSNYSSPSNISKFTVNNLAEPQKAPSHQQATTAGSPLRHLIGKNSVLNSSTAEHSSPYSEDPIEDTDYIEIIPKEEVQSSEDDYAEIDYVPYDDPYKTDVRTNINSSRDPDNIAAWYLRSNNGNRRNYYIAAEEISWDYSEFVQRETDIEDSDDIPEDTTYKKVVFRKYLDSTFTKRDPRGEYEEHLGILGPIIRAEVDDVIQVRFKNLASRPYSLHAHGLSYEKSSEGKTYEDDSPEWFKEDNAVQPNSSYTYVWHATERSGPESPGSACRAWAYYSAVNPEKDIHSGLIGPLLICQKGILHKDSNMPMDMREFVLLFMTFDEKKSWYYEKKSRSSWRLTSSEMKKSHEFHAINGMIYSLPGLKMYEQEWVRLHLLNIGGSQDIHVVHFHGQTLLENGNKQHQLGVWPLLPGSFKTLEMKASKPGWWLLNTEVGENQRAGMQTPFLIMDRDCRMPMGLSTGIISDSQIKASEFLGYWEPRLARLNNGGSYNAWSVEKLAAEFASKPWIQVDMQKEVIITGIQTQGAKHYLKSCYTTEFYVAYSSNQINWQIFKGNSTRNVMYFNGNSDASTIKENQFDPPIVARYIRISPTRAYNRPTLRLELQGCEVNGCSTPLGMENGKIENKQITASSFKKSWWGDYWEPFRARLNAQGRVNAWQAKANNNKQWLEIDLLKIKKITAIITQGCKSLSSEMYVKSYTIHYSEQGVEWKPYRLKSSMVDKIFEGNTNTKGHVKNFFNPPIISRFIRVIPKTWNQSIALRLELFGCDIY
T6 sequence (P12259 with tags, fused parts or gaps DEL839-1519): as above
T5 sequence (P12259 with tags, fused parts or gaps DEL839-1519/R1573Q): as the sequence (P12259 with tags, fused parts or gaps DEL839-1519) above, with R864Q counted along it
T3 sequence (P12259 with tags, fused parts or gaps R737Q/DEL839-1519): as the sequence (P12259 with tags, fused parts or gaps DEL839-1519) above, with R709Q counted along it
T7 sequence (P12259 with tags, fused parts or gaps DEL839-1519): as the sequence (P12259 with tags, fused parts or gaps DEL839-1519) above
T4 sequence (P12259 with tags, fused parts or gaps R737Q/DEL839-1519/R1573Q): as the sequence (P12259 with tags, fused parts or gaps DEL839-1519) above, with R709Q, R864Q counted along it

H-C(X1)SRAWGESTPLANKPGKQSGHPKFPRVRHKSLQVRQDGGKSRLKKSQFLIKTRKKKKEK-OH [OG488-BR]
binding to rFVa/FVa (rFVa [1]): no detectable binding | binding of OG488-BR to FV-810 with EDTA (FV-810 [2]; 10 mM EDTA added to the buffer): no binding was observed | stoichiometry n at saturation (FV-810 [2]; 20 or 40 nM OG488-BR, 50 μM PCPS, 25° C.): 1.27±0.02 mol of FV-810/mol of OG488-BR | Kd (FV-810 [2]; FV-810 pretreated with buffer, 30 nM OG488-BR, 50 μM PCPS, assuming n=1): 2.1 ± 0.3 nM | Kd (FV-810 [2]; FV-810 titrated into 20 or 40 nM OG488-BR, 50 μM PCPS, 25° C.): 2.07 ± 0.2 nM | binding of OG488-BR to thrombin-cleaved FV-810 (FV-810 [2]; after incubation with thrombin): did not; also recorded: neither FV-810 nor FV-810^R709Q had detectable binding | binding of OG488-BR to thrombin-cleaved FV-810^R709Q (FV-810^R709Q): did not; also recorded: neither FV-810 nor FV-810^R709Q had detectable binding | Kd, OG488-BR binding to thrombin-treated FV-810^QQ (FV-810^QQ): still bound | Kd (FV-810^R1545Q; after incubation with thrombin, read-out: Kd, OG488-BR binding to thrombin-cleaved FV-810^R1545Q): 30 nM | Kd (FV-810^R1545Q; pretreated with buffer, assuming n=1, read-out: Kd, OG488-BR binding to FV-810^R1545Q): 2 nM

H-C(X2)SRAWGESTPLANKPGKQSGHPKFPRVRHKSLQVRQDGGKSRLKKSQFLIKTRKKKKEK-OH [QSY7-BR]
sedimentation coefficient (s^020,w) (FV-810 [3]; 5 μM QSY7-BR alone, absence of FV-810): 0.98 S (Svedberg) | sedimentation coefficient (FV-810 [3]; 5 μM QSY7-BR in the presence of 7 μM FV-810): 9.8 S (Svedberg)

TFPI peptide: C-terminal tail peptide of tissue factor pathway inhibitor (amino acids 240-265, SEQ ID NO: 4) (KKGFIQRISKGGLIKTKRKRKKQRVK; peptide from human tissue factor pathway inhibitor)
inhibition of FVDT (FVDT [4]): inhibited FVBT in a manner similar to FVBR | direct binding to FVDT (FVDT [5]): directly bound

acetylated BR peptide: BR peptide acetylated at all Lys residues and the N terminus (Ac-SRAWGESTPLANK(Ac)PGK(Ac)QSGHPK(Ac)FPRVRHK(Ac)SLQVRQDGGK(Ac)SRLK(Ac)K(Ac)SQFLIK(Ac)TRK(Ac)K(Ac)K(Ac)K(Ac)EK(Ac))
inhibition of clotting activity of FV-810 (FV-DT) (FV-810 [6]): no longer inhibited

bovine BR: Bos taurus FV basic region Ser938-Lys996 (SRTWGENIPFKNSHGKQSGHPTFLVTRRKPLQDRQDRRNSRLKEGLPLIRTRRKKKEEK)
inhibition of clotting activity of FV-810 (FV-DT) (FV-810 [6]): inhibited | Kd (FV-810 [7]; 30 nM OG488-BR, 20 nM FV-810, 50 μM PCPS, 25° C., assuming stoichiometry of 1 mol of FV-810/mol of BR peptide): 28.3 ± 0.6 nM | weaker binding to FV-810 than the human BR (FV-810 [7]; displacement binding experiments): ~10 fold | inhibition of prothrombin activation with FV-810 (FV-DT) (FXa/FV-DT): inhibited

platelet factor 4: cationic platelet factor 4 [reference compound]
inhibition of clotting activity of FV-810 (FV-DT) (FV-810 [6]): neither low molecular weight poly-L-lysine (average Mr=1000-5000) (FIG. 8A) nor the cationic platelet factor 4 affected FV-810 activity

poly-L-lysine [reference compound]
inhibition of clotting activity of FV-810 (FV-DT) (FV-810 [6]): neither low molecular weight poly-L-lysine (average Mr=1000-5000) (FIG. 8A) nor the cationic platelet factor 4 affected FV-810 activity

B1: BR+AR peptide: FV residues 968-1007 and 1492-1538, juxtaposed BR and AR sequences from FV-B104 (peptide)
peptide: SGHPKFPRVRHKSLQVRQDGGKSRLKKSQFLIKTRKKKKETDYIEIIPKEEVQSSEDDYAEIDYVPYDDPYKTDVRTNINSSRDPDN
inhibition of clotting activity of rFVa/FVa (rFVa [8]): not inhibited
